Results: patent US20090312374A1, “DERIVATIVES OF 4,6-DISUBSTITUTED 1,2,4-TRIAZOLO- 1,3,4-THIADIAZOLE, A PROCESS AND USES THEREOF” (UNIVERSITY OF MYSORE, priority 2005, published 2009)

Legend:
[1] = tested on: advanced squamous-cell cervical cancer; settings: 125 mg/m2 weekly, cited from earlier work
[2] = tested on: cervical cancer cell line; assay: Immunofluorescence (Hoechst 33258) apoptosis, TN and NC series, cervical cancer; format: cell-based; settings: versus breast cancer and normal cells; FIG. 1
Description: (§1) Subsequently, the cells were washed with PBS.

[3] = tested on: H2AX; assay: Western blot of isolated histones probed with H2AX antibody; format: cell-based; settings: HeLa cells, 24 h compound treatment
Procedure: HeLa cells (3×10^6 cells per 90-mm dish) were seeded overnight, and histones were extracted from 24 h of compound treated cells as reported previously. In brief, cells were harvested, washed in ice-cold buffer A (150 mM KCl, 20 mM HEPES, pH 7.9, 0.1 mM EDTA, and 2.5 mM MgCl2) and lysed in buffer A containing 250 mM sucrose and 1% (v/v) Triton X-100. Nuclei were recovered by centrifugation and washed, and proteins were extracted for 1 h using 0.25 M HCl. The proteins were precipitated with 25% (w/v) trichloroacetic acid and sequentially washed with ice-cold acidified acetone (20 μl of 12 N HCl in 100 ml of acetone) and acetone, air-dried, and dissolved in the sample buffer (5.8 M urea, 0.9 M glacial acetic acid, 16% glycerol, and 4.8% 2-mercaptoethanol). The histones (equal amounts in all lanes) were resolved on SDS PAGE gel.
The western blot analysis was done using the isolated histones and probed with H2AX antibody and the results say that 2 of the compounds (NC-2 and NC-5) get hyperphosphorylated.

[4] = tested on: Breast cancer; assay: Immunofluorescence (Hoechst 33258) apoptosis, TN and NC series, breast cancer; format: cell-based; settings: FIG. 1
Description: as §1

[5] = twenty-one patients, advanced squamous-cell cervical cancer

## Nc1nncs1
[1]
  activity in previously treated cervical carcinoma patients: minimal activity
[1]; [5]
  patients with increasing disease: 14
  patients with partial response: One
  patients with stable disease: six

## CCc1nnc2sc(-c3cccc(Cl)c3Cl)nn12 [NC-2, 6-(2,3-dichlorophenyl)-3-ethyl-[1,2,4]triazolo[3,4-b][1,3,4]thiadiazole]
[2]
  selected as specific to cervical cancer cell line i.e. squamous cancer cell lines: selected
[3]
  H2AX phosphorylation (western blot of isolated histones): hyperphosphorylated

## Clc1ccc(-c2nnc3sc(-c4cccc(Cl)c4Cl)nn23)cc1 [NC-5, 6-(2,3-dichlorophenyl)-3-(4-chlorophenyl)-[1,2,4]triazolo[3,4-b][1,3,4]thiadiazole]
[2]
  selected as specific to cervical cancer cell line i.e. squamous cancer cell lines: selected
[3]
  H2AX phosphorylation (western blot of isolated histones): hyperphosphorylated

## CCc1nnc2sc(C3CCc4cc(F)ccc4O3)nn12 (stereo not drawn) [TN-2, 6-(6-fluorochroman-2-yl)-3-ethyl-[1,2,4]triazolo[3,4-b][1,3,4]thiadiazole]
[4]
  extent of apoptosis: little apoptosis

## Fc1ccc2c(c1)CCC(c1nn3c(-c4ccccc4)nnc3s1)O2 (stereo not drawn) [TN-3, 6-(6-fluorochroman-2-yl)-3-phenyl-[1,2,4]triazolo[3,4-b][1,3,4]thiadiazole]
[2]
  selected as specific to cervical cancer cell line i.e. squamous cancer cell lines: selected

## Cc1ccc(-c2nnc3sc(C4CCc5cc(F)ccc5O4)nn23)cc1 (stereo not drawn) [TN-4, 6-(6-fluorochroman-2-yl)-3-p-tolyl-[1,2,4]triazolo[3,4-b][1,3,4]thiadiazole]
[2]
  selected as specific to cervical cancer cell line i.e. squamous cancer cell lines: selected

## Fc1ccc2c(c1)CCC(c1nn3c(-c4ccc(Cl)cc4)nnc3s1)O2 (stereo not drawn) [TN-5, 3-(4-chlorophenyl)-6-(6-fluorochroman-2-yl)-[1,2,4]triazolo[3,4-b][1,3,4]thiadiazole]
[4]
  extent of apoptosis: little apoptosis
